Laboratory results reported in patent publication US20040106626A1, “6-Membered unsaturated heterocyclic compounds useful for selective inhibition of the coagulation cascade” (Pharmacia Corporation, priority 2001, published 2004).

Tests used:
Format in all cases: biochemical
[1] = target: T1, recombinant soluble tissue factor and recombinant human factor VIIa (TF-VIIa) (Homo sapiens, UniProt P08709); assay: TF-VIIa assay (chromogenic substrate hydrolysis); details: reported only as less than or greater than 0.1 uM
T1 construct: conversion of coagulation factor VII to VIIa by factor Xa; purchased American Diagnostica, Greenwich CT; host or cells: soluble TF made in house in E. coli
Protocol: In this assay 100 nM recombinant soluble tissue factor and 2 nM recombinant human factor VIIa are added to a 96-well assay plate containing 0.4 mM of the substrate, N-methylsulfonyl-D-phe-gly-arg-p-nitroaniline and either inhibitor or buffer (5 mM CaCl2, 50 mM Tris-HCl, pH 8.0, 100 mM NaCl, 0.1% BSA). […] Percent inhibition of TF-VIIa activity is calculated from OD405 nm value from the experimental and control sample.
(§1) Recombinant human VIIa was purchased from American Diagnostica, Greenwich CT and chromogenic substrate N-methylsulfonyl-D-phe-gly-arg-p-nitroaniline was prepared by American Peptide Company, Inc., Sunnyvale, Calif. Factor Xa was obtained from Enzyme Research Laboratories, South Bend Ind., thrombin from Calbiochem, La Jolla, Calif., and trypsin and L-BAPNA from Sigma, St. Louis Mo.

Human factor Xa = target: T2, Human factor Xa (Homo sapiens, UniProt P00742); assay: Xa assay (chromogenic substrate S-2765); details: reported only as less than or greater than 30 uM; read-out: Factor Xa (II) IC50
T2 construct: purchased Enzyme Research Laboratories, South Bend Ind
Protocol: Human factor Xa (0.3 nM) and 0.15 mM -a-Benzyloxycarbonyl-D-arginyl-L-glycyl-L-arginine-p-nitroaniline-dihydrochloride (S-2765) are added to a 96-well assay plate containing either inhibitor or buffer (50 mM Tris-HCl, pH 8.0, 100 mM NaCl, 0.1% BSA). The reaction, in a final volume of 100 ul is measured immediately at 405 nm to determine background absorbance. The plate is incubated at room temperature for 60 min, at which time the rate of hydrolysis of the substrate is measured by monitoring the reaction at 405 nm for the release of p-nitroaniline. Percent inhibition of Xa activity is calculated from OD405 nm value from the experimental and control sample.
Recombinant soluble TF, consisting of amino acids 1-219 of the mature protein sequence was expressed in E. coli and purified using a Mono Q Sepharose FPLC. Recombinant human VIIa was purchased from American Diagnostica, Greenwich CT and chromogenic substrate N-methylsulfonyl-D-phe-gly-arg-p-nitroaniline was prepared by American Peptide Company, Inc., Sunnyvale, Calif. Factor Xa was obtained from Enzyme Research Laboratories, South Bend Ind., thrombin from Calbiochem, La Jolla, Calif., and trypsin and L-BAPNA from Sigma, St. Louis Mo. The chromogenic substrates S-2765 and S-2238 were purchased from Chromogenix, Sweden.

Human thrombin = target: T3, Human thrombin (Homo sapiens, UniProt P00734); assay: Thrombin assay (chromogenic substrate); details: reported only as less than or greater than 30 uM; read-out: Thrombin (II) IC50
T3 construct: converts prothrombin (II) to thrombin (IIa); purchased Calbiochem, La Jolla, Calif
Protocol: Percent inhibition of thrombin activity is calculated from OD405 nm value from the experimental and control sample.
as §1

T2 sequence (P00742 235-488 limits assumed): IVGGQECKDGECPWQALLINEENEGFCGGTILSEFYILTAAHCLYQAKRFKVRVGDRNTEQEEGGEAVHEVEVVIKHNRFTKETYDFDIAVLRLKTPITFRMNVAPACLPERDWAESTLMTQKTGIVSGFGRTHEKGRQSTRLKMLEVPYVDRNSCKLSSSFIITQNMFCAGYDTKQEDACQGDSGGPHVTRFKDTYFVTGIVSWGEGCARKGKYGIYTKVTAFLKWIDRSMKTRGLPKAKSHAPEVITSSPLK
T2 sequence (P00742 41-179 limits assumed): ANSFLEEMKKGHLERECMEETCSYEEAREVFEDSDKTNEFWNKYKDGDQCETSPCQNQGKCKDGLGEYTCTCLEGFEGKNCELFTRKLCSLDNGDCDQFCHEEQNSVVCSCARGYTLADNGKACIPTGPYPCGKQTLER
T1 sequence (P08709 213-466 limits assumed): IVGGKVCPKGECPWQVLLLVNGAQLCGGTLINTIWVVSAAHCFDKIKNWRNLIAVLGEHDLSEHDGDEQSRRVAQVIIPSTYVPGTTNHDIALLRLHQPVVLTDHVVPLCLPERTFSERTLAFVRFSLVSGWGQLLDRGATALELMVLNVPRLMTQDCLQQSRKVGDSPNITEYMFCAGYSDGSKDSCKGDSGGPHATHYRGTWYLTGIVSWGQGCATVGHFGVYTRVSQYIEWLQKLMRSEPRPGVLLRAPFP
T1 sequence (P08709 61-212 limits assumed): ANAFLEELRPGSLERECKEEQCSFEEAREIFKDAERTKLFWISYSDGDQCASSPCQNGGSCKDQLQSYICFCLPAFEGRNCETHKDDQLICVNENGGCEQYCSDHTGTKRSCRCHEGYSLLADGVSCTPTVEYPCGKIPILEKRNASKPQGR
T1 sequence (P13726 33-251 partner limits assumed): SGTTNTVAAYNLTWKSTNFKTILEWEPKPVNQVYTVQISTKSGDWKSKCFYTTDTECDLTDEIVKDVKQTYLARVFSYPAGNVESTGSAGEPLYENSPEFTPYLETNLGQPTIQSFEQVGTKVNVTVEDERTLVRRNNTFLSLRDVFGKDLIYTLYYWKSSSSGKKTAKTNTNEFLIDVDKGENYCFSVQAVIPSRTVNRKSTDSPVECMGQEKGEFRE

SMILES	IC50 [1]	IC50 (Human factor Xa)	IC50 (Human thrombin)
CC(C)Nc1ncc(-c2cc(N)cc(F)c2)n(CC(=O)NCc2ccc(C(=N)N)cc2)c1=O [Example 52]	< 0.1 µM	> 30 µM	< 30 µM
CC(C)NC(=O)c1cc(N)cc(-c2cnc(NC(C)C)c(=O)n2CC(=O)NCc2ccc(C(=N)N)cc2)c1 [Example 60]	< 0.1 µM	> 30 µM	< 30 µM
CC(C)Nc1ncc(-c2cc(N)cc(-c3ccccc3)c2)n(CC(=O)NCc2ccc(C(=N)N)cc2)c1=O [Example 69, 2-[6-(5-amino-1,1′-biphenyl-3-yl)-3-(isopropylamino)-2-oxopyrazin-1 (2H)-yl]-N-{4-[amino(imino)methyl]benzyl}acetamide]	< 0.1 µM	> 30 µM	> 30 µM
CC(C)Nc1ncc(-c2cc(N)cc(C(F)(F)F)c2)n(CC(=O)NCc2ccc(C(=N)N)c(O)c2F)c1=O [Example 97]	> 0.1 µM	> 30 µM	> 30 µM
CC(C)Nc1ncc(-c2cc(N)cc(C(F)(F)F)c2)n(CC(=O)NCc2c(F)c(O)c(C(=N)N)c(F)c2F)c1=O [Example 126]	< 0.1 µM	> 30 µM	< 30 µM
CC(C)Nc1ncc(-c2cc(N)cc(NC(=O)C(C)(C)C)c2)n(CC(=O)NCc2ccc(C(=N)N)cc2)c1=O [Example 132]	< 0.1 µM	> 30 µM	< 30 µM
CCCCCC(C)C(=O)Nc1cc(N)cc(-c2cnc(NC(C)C)c(=O)n2CC(=O)NCc2ccc(C(=N)N)cc2)c1 (stereo not drawn) [Example 138]	< 0.1 µM	> 30 µM	< 30 µM
COc1cc(N)cc(-c2cnc(NC(C)C)c(=O)n2CC(=O)NCc2cc(O)c(C(=N)N)c(F)c2)c1 [Example 168]	> 0.1 µM	> 30 µM	> 30 µM
CC[C@H](C)NC(=O)c1cc(N)cc(-c2cnc(NC(C)C)c(=O)n2CC(=O)NCc2ccc(C(=N)N)c(O)c2F)c1 [Example 173]	< 0.1 µM	> 30 µM	> 30 µM
CC(C)Nc1ncc(-c2cc(N)cc(O)c2)n(CC(=O)NCc2cc(O)c(C(=N)N)c(F)c2)c1=O [Example 180]	> 0.1 µM	> 30 µM	> 30 µM
CC[C@H](C)NC(=O)c1cc(N)cc(-c2cnc(NC3CC3)c(=O)n2CC(=O)NCc2ccc(C(=N)N)cc2)c1 [Example 183]	< 0.1 µM	> 30 µM	< 30 µM
CC[C@H](C)NC(=O)c1cc(N)cc(-c2cnc(NC(C)C)c(=O)n2CC(=O)NCc2c(OC)cc(C(=N)N)cc2OC)c1 [Example 196]	> 0.1 µM	> 30 µM	> 30 µM
CC[C@@H](C)NC(=O)c1cc(N)cc(-c2cnc(NC(C)C)c(=O)n2CC(=O)NCc2c(OC)cc(C(=N)N)cc2OC)c1 [Example 197]	> 0.1 µM	> 30 µM	> 30 µM
COCCOCCOCCOC(=O)c1cc(N)cc(-c2cnc(NC(C)C)c(=O)n2CC(=O)NCc2ccc(C(=N)N)cc2)c1 [Example 200]	< 0.1 µM	> 30 µM	> 30 µM
COCCOCCOCCOCCOCCOCCOC(=O)c1cc(N)cc(-c2cnc(NC(C)C)c(=O)n2CC(=O)NCc2ccc(C(=N)N)cc2)c1 [Example 201]	< 0.1 µM	> 30 µM	> 30 µM
CC[C@H](C)NC(=O)c1cc(N)cc(-c2cnc(N[C@@H](C)CO)c(=O)n2CC(=O)NCc2ccc(C(=N)N)cc2)c1 [Example 208]	< 0.1 µM	> 30 µM	< 30 µM
CC(C)Nc1ncc(-c2cc(N)cc(OC(C)C(=O)O)c2)n(CC(=O)NCc2ccc(C(=N)N)cc2)c1=O (stereo not drawn) [Example 226]	< 0.1 µM	> 30 µM	> 30 µM
CC[C@H](C)NC(=O)c1cc(N)cc(-c2cnc(NC(C)C)c(=O)n2CC(=O)NCc2c(O)cc(C(=N)N)cc2OCc2ccccc2)c1 [Example 242]	< 0.1 µM	> 30 µM	> 30 µM
